In brackets after ≈: the same amount, converted by molar mass.
Assays:
[1] = test system: NOK (oral human keratinocyte) cell lines; assay: Sulphorhodamine B cytotoxicity assay; type: cell-based; conditions: NOK cells, 24 hours
Procedure: The cytotoxicity of sixteen semisynthetic compounds derived from protocatechuic acid was assessed using a sulphorhodamine B assay in NOK (oral human keratinocyte) cell lines obtained from the American Type Culture Collection (Manassas, VA, USA). The strains were maintained in bottles appropriate for cell culture with keratinocyte serum free medium (Gibco, Life Technologies) and incubated in standard conditions of 37°C and 5% CO2. Cell concentrations ranging from 2.5 to 5.0 × 10^4 cells/mL were used for the formation of cell monolayers. The concentrations of pure substances were kept in contact with the cells for 24 hours. After the incubation period, the cells were treated with the sulphorhodamine B reagent (Sigma-Aldrich, St. Louis, MO, USA) as previously described by Skehan et al., with some modifications.

[2] = test system: Trichophyton mentagrophytes; assay: Checkerboard synergism assay with fluconazole; type: cell-based; conditions: for MIC, substances alone: checkerboard, 168 hours
Procedure: (§1) The drug activity was assessed using a checkerboard method derived from a standardised procedure established by the National Committee for Clinical Laboratory Standards ([…]-A2). Briefly, the test was performed on the same medium used for susceptibility testing. Volumes of 50 μL of each drug in a concentration four times the final concentration were dispensed in 96-well plates ([…], Switzerland). To each well, 100 μL of the fungal suspension was added to produce a final concentration of 5.0 × 10^3 CFU/mL. As a negative control, we used 200 μL of RPMI, while as a positive control, we used 100 μL of RPMI medium with 100 μL of inoculum. The plates were incubated at 35°C, and the reading was completed after 168 hours. We conducted visual and spectrophotometric readings at 490 nm. To determine the effect of combinatorial fractions, we calculated the fractional inhibitory concentration (FIC). The FIC was calculated by taking the MIC of the substance in combination/MIC of the substance alone. The sum of the fractional inhibitory concentration (FIC) of each substance consists of the fractional inhibitory concentration index: (the MIC of drug A in combination/the MIC of drug A alone) + (the MIC of drug B in combination/the MIC of drug B alone).

[3] = test system: Trichophyton rubrum; assay: Checkerboard synergism assay with fluconazole; type: cell-based; conditions: for MIC, substances alone: Tr1, checkerboard, 168 hours
Procedure: as §1

[4] = test system: Trichophyton mentagrophytes; assay: Minimum fungicide concentration (MFC); type: cell-based
Procedure: (§2) A qualitative analysis of the fungal viability was performed by transferring a portion of the wells to a plate with Sabouraud (Difco, BD Biosciences) medium and incubating it at 35°C for the time determined for each fungal agent. […] A visual reading was performed to confirm the death or growth inhibition provided by fluconazole and the sixteen semisynthetic substances derived from protocatechuic acid.

[5] = test system: Trichophyton rubrum; assay: Minimum fungicide concentration (MFC); type: cell-based
Procedure: as §2

[6] = test system: Trichophyton mentagrophytes; assay: Broth microdilution MIC (CLSI M38-A2, modified); type: cell-based; conditions: 35°C, 7 days
Procedure: (§3) To evaluate its antifungal activity, […] of dermatophytes were tested: two clinical strains of Trichophyton rubrum (Tr1 and Tr2), Trichophyton rubrum ATCC MYA 3108, two clinical strains of Trichophyton mentagrophytes (Tm1 and Tm2), and Trichophyton mentagrophytes ATCC 40131 (Tm3). The microorganisms were obtained from the collection of the Clinical Mycology Laboratory of the Department of Clinical Analyses at the School of Pharmaceutical Sciences of Universidade Estadual Paulista (UNESP). The strains were cultivated on Sabouraud dextrose agar (Difco, BD Biosciences) and incubated at 28°C for 7-15 days. For all experiments, the strains were cultivated on Potato Dextrose Agar (Difco, BD Biosciences) and incubated at 28°C as described above or until sporulation. The dilution of the synthetic compounds was performed with DMSO (Synth, Diadema, Sao Paulo, Brazil) as described by Scorzoni et al.. […] The antifungal drugs were diluted according to the CLSI […]-A2 document. Stock solutions of Fluconazole (Sigma-Aldrich, St. Louis, MO, USA) were prepared, considering its power. Serial twofold dilutions were prepared according to the recommendations of Zhang and collaborators, with some modifications. The antifungal activity tests were performed using the broth microdilution method as described in […]-A2, a document produced by the Clinical and Laboratory Standards Institute (CLSI, 2008), with modifications. The medium used was RPMI 1640 with L-glutamine (Sigma-Aldrich, St. Louis, MO, USA) buffered to pH 7.0 with 0.165 M morpholinepropanesulfonic acid (MOPS) (Sigma-Aldrich, St. Louis, MO, USA), supplemented with 2% glucose. […] The suspension of conidia was then transferred to small sterile test tubes where they remained for 40 minutes to separate the microconidia, which were lighter and therefore present in the supernatant. […] These suspensions were diluted in RPMI 1640 (Sigma-Aldrich, St. […] Positive (100 μL of RPMI medium with 100 μL of inoculum) and negative (200 μL of RPMI) controls were included in all experiments. The plates were incubated with agitation at 35°C for 7 days. The MIC reading was performed by spectrophotometry at 490 nm.

[7] = test system: Trichophyton rubrum; assay: Broth microdilution MIC (CLSI M38-A2, modified); type: cell-based; conditions: 35°C, 7 days
Procedure: as §3

[8] = test system: Saccharomyces cerevisiae; parameters: method as in PMID 14592492; conditions: cited from earlier work
[9] = Tm3, T. mentagrophytes ATCC 40131
[10] = Tr1, T. rubrum clinical isolate
[11] = Tr2, T. rubrum clinical isolate

| Structure (SMILES) | Cytotoxicity IC50 [1] [µg/mL] | FIC index [2] | MIC of the protocatechuate, substances combined [2] [µg/mL] | association type (in words) [2] | MIC, substances alone ([2]; Tm1) [µg/mL] | MIC, substances alone ([2]; Tm3 (ATCC 40131)) [µg/mL] | FIC index [3] | MIC of the protocatechuate, substances combined [3] [µg/mL] | association type (in words) [3] | MIC, substances alone [3] [µg/mL] | MFC ([4]; Tm1, clinical isolate) [µg/mL] | MFC ([4]; Tm2, clinical isolate) [µg/mL] | MFC [4, 9] [µg/mL] | MFC [5, 10] [µg/mL] | MFC [5, 11] [µg/mL] | MFC ([5]; Tr3, T. rubrum ATCC MYA 3108) [µg/mL] | MIC ([6]; Tm1, clinical isolate) [µg/mL] | MIC ([6]; Tm2, clinical isolate) [µg/mL] | MIC [6, 9] [µg/mL] | MIC [7, 10] [µg/mL] | other results |
| --- | --- | --- | --- | --- | --- | --- | --- | --- | --- | --- | --- | --- | --- | --- | --- | --- | --- | --- | --- | --- | --- |
| CCCCCCCCOC(=O)c1ccc(O)c(O)c1 [Protocatechuate octyl, octyl protocatechuate] | 54.0 | 0.72 | 0.03 | additive | 1.9 | 3.9 | 1.0 | 0.06 | additive | 1.9 | 3.90 (≈ 14.6 µM) | 1.95 (≈ 7.32 µM) | 3.9 (≈ 14.6 µM) | 1.95 (≈ 7.32 µM) | 7.8 (≈ 29.3 µM) | 1.95 (≈ 7.32 µM) | 1.95 (≈ 7.32 µM) | 1.95 (≈ 7.32 µM) | 3.9 (≈ 14.6 µM) | 1.95 (≈ 7.32 µM) | reduction in the MIC of the protocatechuate [3]: 31.66 times; MIC [7, 11]: 7.8 µg/mL (≈ 29.3 µM); MIC ([7]; Tr3, T. rubrum ATCC MYA 3108): 0.97 µg/mL (≈ 3.64 µM); fungicidal activity [8]: fungicidal activity |
| CCCCCCCCCOC(=O)c1ccc(O)c(O)c1 [Protocatechuate nonyl, nonyl protocatechuate] | 52.1 | 1.0 | 0.03 | additive | 3.9 | 3.9 | 1.0 | 0.03 | additive | 1.9 | 3.9 (≈ 13.9 µM) | 3.9 (≈ 13.9 µM) | 3.9 (≈ 13.9 µM) | 1.95 (≈ 6.96 µM) | 3.9 (≈ 13.9 µM) | 3.90 (≈ 13.9 µM) | 3.9 (≈ 13.9 µM) | 3.9 (≈ 13.9 µM) | 3.9 (≈ 13.9 µM) | 1.95 (≈ 6.96 µM) | MIC of fluconazole, substances combined [2]: 0.5 µg/mL; reduction in the MIC of the protocatechuate [2]: 130 fold; reduction in the MIC of the protocatechuate [3]: 63.33 times; MIC [7, 11]: 3.9 µg/mL (≈ 13.9 µM); MIC ([7]; Tr3, T. rubrum ATCC MYA 3108): 1.95 µg/mL (≈ 6.96 µM) |
| CCCCCCOC(=O)c1ccc(O)c(O)c1 [Protocatechuate hexyl, hexyl protocatechuate] | 66.5 | 0.72 | 0.03 | additive | 1.9 | 3.9 | 1.1 | 0.48 | indifferent | 3.9 | 3.90 (≈ 16.4 µM) | 3.9 (≈ 16.4 µM) | 7.80 (≈ 32.7 µM) | 3.9 (≈ 16.4 µM) | 3.90 (≈ 16.4 µM) | 3.9 (≈ 16.4 µM) | 1.95 (≈ 8.18 µM) | 3.9 (≈ 16.4 µM) | 3.90 (≈ 16.4 µM) | 3.9 (≈ 16.4 µM) | reduction in the MIC of the protocatechuate [3]: 8.125 times; MIC [7, 11]: 1.95 µg/mL (≈ 8.18 µM); MIC ([7]; Tr3, T. rubrum ATCC MYA 3108): 3.9 µg/mL (≈ 16.4 µM) |
| CCCCCOC(=O)c1ccc(O)c(O)c1 [Protocatechuate pentyl, pentyl protocatechuate] | 57.0 | 1.0 | 0.03 | additive | 3.9 | 7.8 | 1.0 | 7.8 | additive | 7.8 | 15.6 (≈ 69.6 µM) | 7.8 (≈ 34.8 µM) | 7.8 (≈ 34.8 µM) | 7.8 (≈ 34.8 µM) | 7.8 (≈ 34.8 µM) | 7.8 (≈ 34.8 µM) | 3.90 (≈ 17.4 µM) | 7.8 (≈ 34.8 µM) | 7.8 (≈ 34.8 µM) | 7.8 (≈ 34.8 µM) | MIC of fluconazole, substances combined [2]: 0.5 µg/mL; reduction in the MIC of the protocatechuate [2]: 130 fold; MIC of fluconazole, substances combined [3]: 0.12 µg/mL; reduction in the MIC of fluconazole [3]: 16.66 times; MIC [7, 11]: 7.8 µg/mL (≈ 34.8 µM); MIC ([7]; Tr3, T. rubrum ATCC MYA 3108): 7.8 µg/mL (≈ 34.8 µM) |
